Consider four molecules from ChEMBL document CHEMBL1150745, “Plant anticancer agents, XLVI. Cytotoxic casbane-type constituents of Agrostistachys hookeri” (1988).

≈ marks a conversion by molar mass, not a printed value.

The assay relates to P388. Briefly: Cytotoxicity against mouse P388 cells. It is filed as functional. Conditions: read-out: ED50 (the source's name).

Consider `C/C1=C/C(=O)C/C(C)=C/[C@H](O)C(=O)/C(C)=C/[C@H]2[C@@H](CC1)C2(C)C`, for which the EC50 came out at 2.8 µg/mL (≈ 8.85 µM).

`C/C1=C/[C@H](O)C/C(C)=C/[C@H](O)C(=O)/C(C)=C/[C@H]2[C@@H](CC1)[C@]2(C)CO`: the EC50 stood at 0.8 µg/mL (≈ 2.39 µM).

Turning to `C/C1=C\[C@H](O)C(=O)/C(C)=C/[C@@H]2[C@@H](CCC(C)(O)/C=C/C1)C2(C)C` (some centres undefined) [AGROSKERIN], the EC50 stood at 1.4 µg/mL (≈ 4.4 µM).

In the case of `C/C1=C/[C@H](O)C/C(C)=C/[C@H](O)C(=O)/C(C)=C/[C@H]2[C@@H](CC1)C2(C)C` [AGROSTISTACHIN], the EC50 was 1.4 µg/mL (≈ 4.4 µM).
